Experimental data as given in US7767118B2, “Nanoparticles from supercritical fluid antisolvent process using particle growth and agglomeration retardants” (Ferro Corporation, priority 2003, dated 2010).

Legend:
[1] = Scanning electron micrographs of the particles formed in the Example; assay type: physicochemical; details: particles precipitated from acetone into SC-CO2 at 40° C., 80 bar with alpha D glucose penta acetate as growth retardant; FIGS. 4A and 4B; substantially uniform in size, circular in shape
Text: FIGS. 4A and 4B are scanning electron micrographs of the acetaminophen particles formed in the Example at two magnifications. […] Some minimal particle agglomeration or bridging is apparent.

[2] = Particle size distribution by laser light scattering; assay type: physicochemical; details: FIG. 5, standard deviation 1.87 microns, particles precipitated in SC-CO2 at 40° C., 80 bar with alpha D glucose penta acetate
Protocol: The mean diameter of the acetaminophen particles formed in the Example was measured using the conventional laser light scattering technique, which is known in the art. FIG. 5 is a graph showing the size distribution of particles. The mean volume diameter of the particles was 4.08 microns and the standard deviation was 1.87 microns.

## CC(=O)Nc1ccc(O)cc1 [acetaminophen]
[1]
  particle size (scanning electron micrographs): 1-2 microns
[2]
  mean volume diameter of the particles: 4.08 microns
